{"source": "patent US9856218B2", "about": "“Inhibitors of PRMT5 and methods of their use” (Ohio State Innovation Foundation, priority 2013, dated 2018)", "key": {"[1]": {"tested_on": "Mantle cell lymphoma cell line Jeko", "assay": "MTS anti-proliferation assay", "format": "cell-based", "experimental": "MTS proliferation assays were performed according the CellTiter 96™ Aqueous Cell Proliferation Assay Technical Bulletin (Promega, Madison, Wis.). 5×10^5 cells were plated in each well of a 96-well plate at 37° C. and assayed for proliferation at 24, 48, and 72 hr. Proliferation signal at 50% of control was used as IC50 for growth.\nFollowing the synthesis of 14 compounds, the anti-proliferation and pro-apoptotic activities of those compounds was evaluated in Mantle cell lymphoma cell line Jeko. Replicate cultures of Jeko were incubated in DMSO and the compounds for 24, 48 and 72 hours. FITC-Annexin V-PI stained flow cytometry was used to detect the apoptotic population of cells (Table 4)."}, "[2]": {"tested_on": "SP1 protein in AML cell lines (FLT3-ITD and FLT3-WT)", "assay": "SP1 protein levels, Western blotting", "format": "cell-based", "experimental": "Whole cell lysates were prepared by suspending cell pellets in RIPA buffer for 20 min (1% NP-40, 0.1% SDS, 150 mM NaCl, 50 mM Tris, pH 8.0), then supplemented with 1× complete EDTA free protease inhibitor (Roche) and 1× PhosStop (Roche). Lysates were separated by 4-20% SDS-PAGE and transferred to PVDF membrane (GE Healthcare, Piscataway, N.J.). Membranes were blocked with 5% milk or BSA in 1×TBS with 0.1% Tween 20 for 1 hour at room temperature with shaking. Primary antibodies for ACTIN, GAPDH and FLT3 (Santa Cruz Biotechnology, Santa Cruz Calif.), P65 (Cell signaling), PRMT5 and SP1 (Millipore), H4R3, H3R8, H3 and H4 (Abcam), were diluted 1:1000 or 1:2000 in 5% milk or BSA and incubated for 1-2 hr at room temperature. Membranes were washed using 1×TBS-T, incubated with HRP-conjugated secondary antibodies diluted in 1×TBS-T with 5% milk or BSA, washed, and developed using SuperSignal West Dura Chemiluminescent Substrate (Thermo Scientific). […]\nA similar trend was documented in the in vivo murine model of PRMT5 overexpression generated by THP-1/PRMT5 engraftment, as a significant increase in SP1 levels was measured when compared to THP-1/EV control mice (FIG. 45). […]"}, "Kasumi-1": {"tested_on": "Kasumi-1", "assay": "MTS growth inhibition assay", "format": "cell-based", "settings": "Homo sapiens, Kasumi-1, KIT mutation, read-out: IC50 μM", "experimental": "(§1) Clonogenic assays were set up by plating 1×10^3 cell/mL in semi-solid methylcellulose medium (MethoCult, Stem Cell Technologies). Colonies were counted after 10-14 days using an inverted microscope. Growth inhibition assays were measured using a colorimetric MTS assay: 5×10^4 cells were plated in 100 μL final volume in a 96-well plate in the presence of different concentrations of C12 for 24, 48 and 72 hours at 37° C. Afterwards, 20 μL of the CellTiter 96W AQueous One Solution Reagent, which contains tetrazolium compound [3-(4,5-[…])-5-(3-carboxymethoxyphenyl)-2-(4-sulfophenyl)-2H-tetrazolium, inner salt; MTS] and an electron coupling reagent (phenazine ethosulfate; PES) (Promega, Madison Wis.), was added to each well. Within 1-4 hours of incubation at 37° C., the optical density at 490 and 690 nm was measured. Cell viability was calculated with respect to the control samples and reference background wavelength at 690 nm. At least three independent experiments were performed. Growth curve assays were done by counting live cells using Trypan blue exclusion and inverted microscope for >12 days after plating the cells in 1×10^5 concentrations.\n(§2) PRMT5 inhibition by C12 was also effective in promoting apoptosis and differentiation.\n(§3) Referring to FIGS. 34A and 34B, a colorimetric MTS assay was used to measure the proliferation rate of AML cell lines and primary blasts from patients after 48 hours incubation with a PRMT5 inhibitor compound (HLCL61 or C12). The dose-dependent decrease in absorbance indirectly correlates with the number of metabolically active live cells. The IC50 values represent the concentration of the compound at which 50% cell death was achieved."}, "MV411": {"tested_on": "MV411", "assay": "MTS growth inhibition assay", "format": "cell-based", "settings": "Homo sapiens, MV4-11, MV411, FLT3-ITD+, read-out: IC50 μM", "experimental": "as §1, §2, §3"}, "[3]": {"assay": "MTD study, four mice each dose", "format": "in vivo", "settings": "mouse, in vivo, ip", "experimental": "Controlled shRNA depletion was evaluated in a murine lymphoma model (Eμ-BRD2 (Chung, J., et al. (2013) J. Biological Chemistry 288, 35534-35547)) and human xenograft model of glioblastoma (Yan, F., et al (2014) Cancer Research In Press). Referring to FIG. 62A, controlled expression of a PRMT5 shRNA (solid line) but not control shRNA (dashed line) leads to 100% survival of mice engrafted primary DLBCL tumor cells. […] The maximum tolerated dose (MTD, single dose) was identified at 50 mg/kg (see Table 11 below). A sub-toxic dose (25 mg/kg) was used to treat FcMCL mice. Control mice developed peripheral blood and lymph node tumor burden starting day 20 post-engraftment."}}, "note": "Like-named read-outs stand apart in the source and are kept apart here."}
{"smiles": "CCn1c2ccccc2c2cc(CNCc3ccccc3OC)ccc21", "note": "[HLCL-61]", "values": [{"measurement": "IC50", "setting": "[1]; 24 h incubation", "result": 44, "unit": "µM"}, {"measurement": "IC50", "setting": "[1]; 48 h incubation", "result": 29, "unit": "µM"}, {"measurement": "IC50", "setting": "[1]; 72 h incubation", "result": 28, "unit": "µM"}, {"measurement": "SP1 protein levels", "setting": "[2]", "result": "significant knockdown of SP1 protein levels"}, {"measurement": "IC50", "setting": "Kasumi-1; 24 h, 24 h", "result": 6.99, "unit": "µM"}, {"measurement": "IC50", "setting": "Kasumi-1; 48 h, 48 h", "result": 7.21, "unit": "µM"}, {"measurement": "IC50", "setting": "Kasumi-1; 72 h, 72 h", "result": 5.63, "unit": "µM"}, {"measurement": "IC50", "setting": "MV411; 24 h, 24 h", "result": 17.9, "unit": "µM"}, {"measurement": "IC50", "setting": "MV411; 48 h, 48 h", "result": 14.1, "unit": "µM"}, {"measurement": "IC50", "setting": "MV411; 72 h, 72 h", "result": 10.9, "unit": "µM"}, {"measurement": "survival 24 hr after dosing", "setting": "[3]; 5 mg/kg, 24 h", "result": "Alive 24 hr after"}, {"measurement": "condition within 1 hr after dosing (alive but slow moving)", "setting": "[3]; 50 mg/kg", "result": "Alive within 1 hr after"}, {"measurement": "mice lethargic and slow moving 24 hr after dosing", "setting": "[3]; 50 mg/kg, 24 h", "result": "after dosing, 1 out 4"}, {"measurement": "survival 24 hr after dosing", "setting": "[3]; 50 mg/kg, 24 h", "result": "moving. Alive 24 hr"}]}
